Source: patent US4093724A, “Novel-3-(4-quinolylamino)-2-thiophene-carboxylates” (Roussel Uclaf, priority 1976, dated 1978)
Counter-ions that a name gives are not always drawn.

These compounds were tested on mice (stretching and twisting provoked by intraperitoneal injection of acetic acid) (assay: Analgesic Activity: acetic acid-induced stretching test in mice (based on Koster et al)). Details: Mus musculus, fasted 24 hours, test product oral 30 minutes before i.p. acetic acid (60 mg/kg), stretchings counted during 15 minutes after injection, read-out: AD50 (dose which reduced by 50% the number of stretching as compared to the controls).
Format: in vivo
Experimental: The test was based on that of Koster et al [Fed. Proc., Vol. 18 (1959) p. 412] wherein the intraperitoneal injection of acetic acid provokes in mice repeated stretching and twisting which persists for more than 6 hours and an analgesic prevents or suppresses this syndrom which is considered to be the exteriorization of a diffuse abdominal pain. A solution of 0.6% acetic acid in water containing 10% of arabic gum is used and the dose which causes the syndrom under these conditions is 0.01 ml/g or 60 mg/kg of acetic acid. The test products were orally administered 30 minutes before the intraperitoneal injection of acetic acid and the mice were fasted for 24 hours before the test.
For each dose and for the controls required in each test, groups of 5 mice were used and the stretchings were observed and counted for each mouse and added for each group, during a period of 15 minutes right after the injection. The AD50 or dose which reduced by 50% the number of stretching as compared to the controls was determined.

Q: Which ED50 does the source give for O=C(OCCN1CCN(c2cccc(C(F)(F)F)c2)CC1)c1sccc1Nc1ccnc2c(C(F)(F)F)cccc12 [Example 1, 2-[4-(3-trifluoromethylphenyl)-1-piperazinyl]-ethyl 3-[8-trifluoromethyl-4-quinolylamino]-2-thiophene-carboxylate dihydrochloride] here?
A: 20 mg/kg

Q: For O=C(OCCN1CCN(c2cccc(C(F)(F)F)c2)CC1)c1sccc1Nc1ccnc2cc(Cl)ccc12 [Example 3, 2-[4-(3-trifluoromethylphenyl)-1-piperazinyl]-ethyl 3-(7-chloro-4-quinolylamino)-2-thiophene-carboxylate], which ED50 is on record?
A: 20 mg/kg

Q: O=C(OCCN1CCN(c2ccc(Cl)cc2)CC1)c1sccc1Nc1ccnc2c(C(F)(F)F)cccc12 [Example 2, 2-[4-(4-chlorophenyl)-1-piperazinyl]-ethyl 3-(8-trifluoromethyl-4-quinolylamino)-2-thiophene-carboxylate] was tested. Which ED50 did it give?
A: 15 mg/kg
